Experimental data from PubChem BioAssay (NCI).
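Each compound was tested at five concentrations against cells in 96-well plates for 48 hours. GI50 marks 50% less growth. TGI denotes the concentration required for complete inhibition of growth.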

Key:
Assay in all cases: NCI-60 cell line screen, 48 h
786-0 renal = tested on: 786-0 renal
A498 renal = tested on: A498 renal
A549 NSCLC = tested on: A549 NSCLC
ACHN renal = tested on: ACHN renal
BT-549 breast = tested on: BT-549 breast
CAKI-1 renal = tested on: CAKI-1 renal
CCRF-CEM leukemia = tested on: CCRF-CEM leukemia
COLO 205 colon = tested on: COLO 205 colon
DU-145 prostate = tested on: DU-145 prostate
EKVX NSCLC = tested on: EKVX NSCLC
HCC-2998 colon = tested on: HCC-2998 colon
HCT-116 colon = tested on: HCT-116 colon
HCT-15 colon = tested on: HCT-15 colon
HL-60(TB) leukemia = tested on: HL-60(TB) leukemia
HOP-62 NSCLC = tested on: HOP-62 NSCLC
HOP-92 NSCLC = tested on: HOP-92 NSCLC
HS 578T breast = tested on: HS 578T breast
HT29 colon = tested on: HT29 colon
IGROV1 ovarian = tested on: IGROV1 ovarian
K-562 leukemia = tested on: K-562 leukemia
KM12 colon = tested on: KM12 colon
LOX IMVI melanoma = tested on: LOX IMVI melanoma
M14 melanoma = tested on: M14 melanoma
MALME-3M melanoma = tested on: MALME-3M melanoma
MCF7 breast = tested on: MCF7 breast
MDA-MB-231 breast = tested on: MDA-MB-231 breast
MDA-MB-435 = tested on: MDA-MB-435
MOLT-4 leukemia = tested on: MOLT-4 leukemia
NCI-H226 lung = tested on: NCI-H226 lung
NCI-H23 lung = tested on: NCI-H23 lung
NCI-H460 lung = tested on: NCI-H460 lung
NCI-H522 lung = tested on: NCI-H522 lung
NCI/ADR-RES ovarian = tested on: NCI/ADR-RES ovarian
OVCAR-3 ovarian = tested on: OVCAR-3 ovarian
OVCAR-4 ovarian = tested on: OVCAR-4 ovarian
OVCAR-5 ovarian = tested on: OVCAR-5 ovarian
OVCAR-8 ovarian = tested on: OVCAR-8 ovarian
PC-3 prostate = tested on: PC-3 prostate
RPMI-8226 leukemia = tested on: RPMI-8226 leukemia
RXF 393 renal = tested on: RXF 393 renal
SF-268 CNS = tested on: SF-268 CNS
SF-539 CNS = tested on: SF-539 CNS
SK-MEL-2 melanoma = tested on: SK-MEL-2 melanoma
SK-MEL-28 melanoma = tested on: SK-MEL-28 melanoma
SK-MEL-5 melanoma = tested on: SK-MEL-5 melanoma
SK-OV-3 ovarian = tested on: SK-OV-3 ovarian
SN12C renal = tested on: SN12C renal
SNB-19 CNS = tested on: SNB-19 CNS
SNB-75 CNS = tested on: SNB-75 CNS
SR leukemia = tested on: SR leukemia
SW-620 colon = tested on: SW-620 colon
T-47D breast = tested on: T-47D breast
TK-10 renal = tested on: TK-10 renal
U251 CNS = tested on: U251 CNS
UACC-257 melanoma = tested on: UACC-257 melanoma
UACC-62 melanoma = tested on: UACC-62 melanoma
UO-31 renal = tested on: UO-31 renal
SF-295 CNS = tested on: SF-295 CNS

Structure (SMILES): C[C@@H]1CC[C@H]2C(COCCOCC3=C(C(F)(F)F)O[C@@H]4O[C@@]5(C)CC[C@H]6[C@H](C)CC[C@@H]3[C@@]46OO5)=C(C(F)(F)F)O[C@@H]3O[C@@]4(C)CC[C@@H]1[C@]32OO4
- TGI (786-0 renal): > 100 µM
- GI50 (A498 renal): > 20.2 µM
- TGI (A498 renal): > 96.9 µM
- GI50 (A549 NSCLC): < 0.0332 µM
- TGI (A549 NSCLC): > 100 µM
- GI50 (ACHN renal): 0.0797 µM
- TGI (ACHN renal): > 10.3 µM
- GI50 (BT-549 breast): 0.224 µM
- TGI (BT-549 breast): > 100 µM
- GI50 (CAKI-1 renal): 0.304 µM
- TGI (CAKI-1 renal): > 12.9 µM
- GI50 (CCRF-CEM leukemia): < 0.0209 µM
- TGI (CCRF-CEM leukemia): > 100 µM
- GI50 (COLO 205 colon): 0.0188 µM
- TGI (COLO 205 colon): 1.64 µM
- GI50 (DU-145 prostate): > 100 µM
- TGI (DU-145 prostate): > 100 µM
- GI50 (EKVX NSCLC): 0.795 µM
- TGI (EKVX NSCLC): > 100 µM
- GI50 (HCC-2998 colon): > 11.9 µM
- TGI (HCC-2998 colon): > 100 µM
- GI50 (HCT-116 colon): 0.0243 µM
- TGI (HCT-116 colon): > 100 µM
- GI50 (HCT-15 colon): 0.0264 µM
- TGI (HCT-15 colon): > 13.8 µM
- GI50 (HL-60(TB) leukemia): < 0.0213 µM
- GI50 (HOP-62 NSCLC): > 24 µM
- TGI (HOP-62 NSCLC): > 100 µM
- GI50 (HOP-92 NSCLC): 0.0679 µM
- TGI (HOP-92 NSCLC): > 100 µM
- TGI (HS 578T breast): > 100 µM
- GI50 (HT29 colon): < 0.0138 µM
- TGI (HT29 colon): > 100 µM
- GI50 (IGROV1 ovarian): > 21.1 µM
- TGI (IGROV1 ovarian): > 100 µM
- GI50 (K-562 leukemia): < 0.0241 µM
- TGI (K-562 leukemia): > 100 µM
- GI50 (KM12 colon): 0.0305 µM
- TGI (KM12 colon): > 6.15 µM
- GI50 (LOX IMVI melanoma): 0.0641 µM
- GI50 (M14 melanoma): 0.557 µM
- TGI (M14 melanoma): > 100 µM
- GI50 (MALME-3M melanoma): < 0.01 µM
- TGI (MALME-3M melanoma): 9.26 µM
- GI50 (MCF7 breast): 0.0322 µM
- TGI (MCF7 breast): > 100 µM
- GI50 (MDA-MB-231 breast): 1.97 µM
- TGI (MDA-MB-231 breast): > 15.8 µM
- GI50 (MDA-MB-435): 0.0426 µM
- TGI (MDA-MB-435): > 100 µM
- GI50 (MOLT-4 leukemia): < 0.0349 µM
- TGI (MOLT-4 leukemia): > 100 µM
- GI50 (NCI-H226 lung): 0.102 µM
- TGI (NCI-H226 lung): > 100 µM
- GI50 (NCI-H23 lung): 0.535 µM
- TGI (NCI-H23 lung): > 100 µM
- GI50 (NCI-H460 lung): < 0.0202 µM
- TGI (NCI-H460 lung): > 100 µM
- GI50 (NCI-H522 lung): 2.9 µM
- TGI (NCI-H522 lung): > 100 µM
- GI50 (NCI/ADR-RES ovarian): 5.57 µM
- TGI (NCI/ADR-RES ovarian): > 100 µM
- GI50 (OVCAR-3 ovarian): 0.134 µM
- TGI (OVCAR-3 ovarian): > 8.24 µM
- GI50 (OVCAR-4 ovarian): > 100 µM
- TGI (OVCAR-4 ovarian): > 100 µM
- GI50 (OVCAR-5 ovarian): > 4.64 µM
- TGI (OVCAR-5 ovarian): > 20 µM
- GI50 (OVCAR-8 ovarian): < 0.0261 µM
- TGI (OVCAR-8 ovarian): > 100 µM
- GI50 (PC-3 prostate): < 0.01 µM
- TGI (PC-3 prostate): > 100 µM
- GI50 (RPMI-8226 leukemia): < 0.0139 µM
- GI50 (RXF 393 renal): > 100 µM
- TGI (RXF 393 renal): > 100 µM
- GI50 (SF-268 CNS): 0.0602 µM
- TGI (SF-268 CNS): > 100 µM
- GI50 (SF-539 CNS): 0.0264 µM
- TGI (SF-539 CNS): > 69.8 µM
- GI50 (SK-MEL-2 melanoma): > 100 µM
- TGI (SK-MEL-2 melanoma): > 100 µM
- GI50 (SK-MEL-28 melanoma): > 7.2 µM
- TGI (SK-MEL-28 melanoma): > 55.3 µM
- GI50 (SK-MEL-5 melanoma): 0.176 µM
- TGI (SK-MEL-5 melanoma): > 100 µM
- GI50 (SK-OV-3 ovarian): > 31.5 µM
- TGI (SK-OV-3 ovarian): > 100 µM
- GI50 (SN12C renal): < 0.0448 µM
- TGI (SN12C renal): > 100 µM
- TGI (SNB-19 CNS): > 100 µM
- GI50 (SNB-75 CNS): > 4.64 µM
- TGI (SNB-75 CNS): > 100 µM
- GI50 (SR leukemia): 0.0116 µM
- TGI (SR leukemia): > 100 µM
- GI50 (SW-620 colon): 0.0293 µM
- TGI (SW-620 colon): > 100 µM
- GI50 (T-47D breast): < 0.014 µM
- TGI (T-47D breast): > 94.6 µM
- GI50 (TK-10 renal): 0.0557 µM
- TGI (TK-10 renal): > 100 µM
- GI50 (U251 CNS): < 0.01 µM
- TGI (U251 CNS): 0.178 µM
- GI50 (UACC-257 melanoma): 0.407 µM
- TGI (UACC-257 melanoma): > 100 µM
- GI50 (UACC-62 melanoma): 0.141 µM
- TGI (UACC-62 melanoma): > 100 µM
- GI50 (UO-31 renal): 0.186 µM
- TGI (UO-31 renal): > 100 µM

Structure (SMILES): Cc1ccccc1N=Nc1ccc(N=Nc2c(O)ccc3ccccc23)c(C)c1
- TGI (786-0 renal): > 100 µM
- TGI (A498 renal): > 100 µM
- TGI (A549 NSCLC): > 100 µM
- TGI (ACHN renal): > 100 µM
- TGI (BT-549 breast): > 100 µM
- TGI (CAKI-1 renal): > 100 µM
- TGI (COLO 205 colon): > 100 µM
- TGI (DU-145 prostate): > 100 µM
- TGI (EKVX NSCLC): > 100 µM
- TGI (HCT-116 colon): > 100 µM
- TGI (HCT-15 colon): > 100 µM
- TGI (HOP-62 NSCLC): > 100 µM
- TGI (HOP-92 NSCLC): > 100 µM
- TGI (HS 578T breast): > 100 µM
- TGI (HT29 colon): > 100 µM
- TGI (IGROV1 ovarian): > 100 µM
- TGI (K-562 leukemia): > 100 µM
- TGI (KM12 colon): > 100 µM
- TGI (LOX IMVI melanoma): > 100 µM
- TGI (M14 melanoma): > 100 µM
- TGI (MALME-3M melanoma): > 100 µM
- TGI (MDA-MB-231 breast): > 100 µM
- TGI (MDA-MB-435): > 100 µM
- TGI (MOLT-4 leukemia): > 100 µM
- TGI (NCI-H226 lung): > 100 µM
- TGI (NCI-H23 lung): > 100 µM
- TGI (NCI-H522 lung): > 100 µM
- TGI (NCI/ADR-RES ovarian): > 100 µM
- TGI (OVCAR-3 ovarian): > 100 µM
- TGI (OVCAR-4 ovarian): > 100 µM
- TGI (OVCAR-5 ovarian): > 100 µM
- TGI (OVCAR-8 ovarian): > 100 µM
- TGI (PC-3 prostate): > 100 µM
- TGI (RPMI-8226 leukemia): > 100 µM
- TGI (RXF 393 renal): > 100 µM
- TGI (SF-268 CNS): > 100 µM
- TGI (SF-295 CNS): > 100 µM
- TGI (SK-MEL-2 melanoma): > 100 µM
- TGI (SK-MEL-28 melanoma): > 100 µM
- TGI (SK-MEL-5 melanoma): > 100 µM
- TGI (SK-OV-3 ovarian): > 100 µM
- TGI (SN12C renal): > 100 µM
- TGI (SNB-19 CNS): > 100 µM
- TGI (SNB-75 CNS): > 100 µM
- TGI (SW-620 colon): > 100 µM
- TGI (T-47D breast): > 100 µM
- TGI (TK-10 renal): > 100 µM
- TGI (U251 CNS): > 100 µM
- TGI (UACC-257 melanoma): > 100 µM
- TGI (UACC-62 melanoma): > 100 µM
- TGI (UO-31 renal): > 100 µM
